Measured values published in ChEMBL document CHEMBL1201862, “PubChem BioAssay data set” (2004).
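Grown in 96-well plates, cells were treated for 48 hours with each compound at five concentrations. Insufficient inhibition: endpoint recorded as highest concentration tested. GI50 marks 50% less growth.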 Active and inactive are the calls of the source. No stated cut-off is given here; in the data, active = GI50 up to about 1.1 µM and inactive = higher.

How the values were obtained:
Experiment in all cases: NCI tumour cell line growth inhibition, 48 h
TK-10 = tested on: TK-10
XF498 = tested on: XF498
RXF 631 = tested on: RXF 631
KM12 = tested on: KM12
Malme-3M = tested on: Malme-3M
COLO 205 = tested on: COLO 205
MOLT-4 = tested on: MOLT-4
SNB-19 = tested on: SNB-19
LOX IMVI = tested on: LOX IMVI
OVCAR-4 = tested on: OVCAR-4
NCI-H460 = tested on: NCI-H460
SK-MEL-5 = tested on: SK-MEL-5
SNB-78 = tested on: SNB-78
RPMI-8226 = tested on: RPMI-8226
SNB-75 = tested on: SNB-75
HL-60 = tested on: HL-60
786-0 = tested on: 786-0
SW-620 = tested on: SW-620
SK-MEL-28 = tested on: SK-MEL-28
UACC-257 = tested on: UACC-257
LXFL 529 = tested on: LXFL 529
CCRF-CEM = tested on: CCRF-CEM
M14 = tested on: M14
UACC-62 = tested on: UACC-62
HOP-92 = tested on: HOP-92
OVCAR-5 = tested on: OVCAR-5
A549 = tested on: A549
SK-MEL-2 = tested on: SK-MEL-2
EKVX = tested on: EKVX
M19-MEL = tested on: M19-MEL
OVCAR-8 = tested on: OVCAR-8
OVCAR-3 = tested on: OVCAR-3
HCT-116 = tested on: HCT-116
SF-268 = tested on: SF-268
NCI-H226 = tested on: NCI-H226
DLD-1 = tested on: DLD-1
SN12C = tested on: SN12C
DMS-114 = tested on: DMS-114
HOP-18 = tested on: HOP-18
ACHN = tested on: ACHN
UO-31 = tested on: UO-31
U-251 = tested on: U-251
HCC 2998 = tested on: HCC 2998
IGROV-1 = tested on: IGROV-1
SF-295 = tested on: SF-295
HT-29 = tested on: HT-29
HOP-62 = tested on: HOP-62
NCI-H23 = tested on: NCI-H23
KM-20L2 = tested on: KM-20L2
RXF 393 = tested on: RXF 393
NCI/ADR-RES = tested on: NCI/ADR-RES
SF-539 = tested on: SF-539
DU-145 = tested on: DU-145
MDA-N = tested on: MDA-N
Hs-578T = tested on: Hs-578T
CAKI-1 = tested on: CAKI-1
SR = tested on: SR
MDA-MB-435 = tested on: MDA-MB-435
K562 = tested on: K562
PC-3 = tested on: PC-3
SK-OV-3 = tested on: SK-OV-3
A498 = tested on: A498
MDA-MB-231 = tested on: MDA-MB-231
T47D = tested on: T47D
HCT-15 = tested on: HCT-15
MCF7 = tested on: MCF7
NCI-H522 = tested on: NCI-H522
DMS-273 = tested on: DMS-273
BT-549 = tested on: BT-549

## NNC(=O)C(=O)N/N=C1\CCCC1C(=O)CCC(=O)Nc1cccc(Cl)c1 (centres undefined)
TK-10
  GI50: > 100 µM (inactive)
XF498
  GI50: > 100 µM (inactive)
RXF 631
  GI50: > 100 µM (inactive)
KM12
  GI50: > 100 µM (inactive)
Malme-3M
  GI50: > 100 µM (inactive)
COLO 205
  GI50: > 100 µM (inactive)
MOLT-4
  GI50: > 100 µM (inactive)
SNB-19
  GI50: > 100 µM (inactive)
LOX IMVI
  GI50: > 100 µM (inactive)
OVCAR-4
  GI50: > 100 µM (inactive)
NCI-H460
  GI50: > 100 µM (inactive)
SK-MEL-5
  GI50: > 100 µM (inactive)
SNB-78
  GI50: > 100 µM (inactive)
RPMI-8226
  GI50: > 100 µM (inactive)
SNB-75
  GI50: > 100 µM (inactive)
HL-60
  GI50: > 100 µM (inactive)
786-0
  GI50: > 100 µM (inactive)
SW-620
  GI50: > 100 µM (inactive)
SK-MEL-28
  GI50: > 100 µM (inactive)
UACC-257
  GI50: > 100 µM (inactive)
LXFL 529
  GI50: > 100 µM (inactive)
CCRF-CEM
  GI50: > 100 µM (inactive)
M14
  GI50: > 100 µM (inactive)
UACC-62
  GI50: > 100 µM (inactive)
HOP-92
  GI50: > 100 µM (inactive)
OVCAR-5
  GI50: > 100 µM (inactive)
A549
  GI50: > 100 µM (inactive)
SK-MEL-2
  GI50: > 100 µM (inactive)
EKVX
  GI50: > 100 µM (inactive)
M19-MEL
  GI50: > 100 µM (inactive)
OVCAR-8
  GI50: > 100 µM (inactive)
OVCAR-3
  GI50: > 100 µM (inactive)
HCT-116
  GI50: > 100 µM (inactive)
SF-268
  GI50: > 100 µM (inactive)
NCI-H226
  GI50: > 100 µM (inactive)
DLD-1
  GI50: > 100 µM (inactive)
SN12C
  GI50: > 100 µM (inactive)
DMS-114
  GI50: > 100 µM (inactive)
HOP-18
  GI50: > 100 µM (inactive)
ACHN
  GI50: > 100 µM (inactive)
UO-31
  GI50: > 100 µM (inactive)
U-251
  GI50: > 100 µM (inactive)
HCC 2998
  GI50: > 100 µM (inactive)
IGROV-1
  GI50: > 100 µM (inactive)
SF-295
  GI50: > 100 µM (inactive)
HT-29
  GI50: > 100 µM (inactive)
HOP-62
  GI50: > 100 µM (inactive)
NCI-H23
  GI50: > 100 µM (inactive)
KM-20L2
  GI50: > 100 µM (inactive)
RXF 393
  GI50: > 100 µM (inactive)

## NC(=O)c1nnn(Cc2cc(Cl)c(C(=O)c3ccc(Cl)cc3)c(Cl)c2)c1N [CARBOXYAMIDOTRIAZOLE]
TK-10
  GI50: 20.6 µM (inactive)
XF498
  GI50: > 9.1 µM (inactive)
RXF 631
  GI50: 11.7 µM (inactive)
NCI/ADR-RES
  GI50: 32.1 µM (inactive)
KM12
  GI50: 10.4 µM (inactive)
Malme-3M
  GI50: 27.5 µM (inactive)
SF-539
  GI50: 29.2 µM (inactive)
DU-145
  GI50: 19.2 µM (inactive)
COLO 205
  GI50: 27.8 µM (inactive)
MOLT-4
  GI50: 25.9 µM (inactive)
SNB-19
  GI50: 24.4 µM (inactive)
LOX IMVI
  GI50: 22 µM (inactive)
OVCAR-4
  GI50: 22 µM (inactive)
NCI-H460
  GI50: 14.8 µM (inactive)
SK-MEL-5
  GI50: 5.96 µM (inactive)
SNB-78
  GI50: > 9.1 µM (inactive)
RPMI-8226
  GI50: 25.4 µM (inactive)
SNB-75
  GI50: 32.8 µM (inactive)
MDA-N
  GI50: 10.7 µM (inactive)
Hs-578T
  GI50: 39 µM (inactive)
HL-60
  GI50: 14.8 µM (inactive)
CAKI-1
  GI50: 12.4 µM (inactive)
SR
  GI50: 6.75 µM (inactive)
MDA-MB-435
  GI50: 11 µM (inactive)
786-0
  GI50: 27.9 µM (inactive)
SW-620
  GI50: 27.1 µM (inactive)
K562
  GI50: 8.05 µM (inactive)
SK-MEL-28
  GI50: 27.9 µM (inactive)
PC-3
  GI50: 19.5 µM (inactive)
UACC-257
  GI50: 7.98 µM (inactive)
SK-OV-3
  GI50: > 38.5 µM (inactive)
LXFL 529
  GI50: > 9.1 µM (inactive)
CCRF-CEM
  GI50: 31 µM (inactive)
M14
  GI50: 19.6 µM (inactive)
UACC-62
  GI50: 12.9 µM (inactive)
HOP-92
  GI50: 32 µM (inactive)
OVCAR-5
  GI50: 34.5 µM (inactive)
A549
  GI50: 12.7 µM (inactive)
SK-MEL-2
  GI50: 11.1 µM (inactive)
EKVX
  GI50: 16.8 µM (inactive)
M19-MEL
  GI50: > 9.1 µM (inactive)
OVCAR-8
  GI50: 24.1 µM (inactive)
OVCAR-3
  GI50: 12.3 µM (inactive)
HCT-116
  GI50: 11.1 µM (inactive)
A498
  GI50: 13.7 µM (inactive)
SF-268
  GI50: 13 µM (inactive)
NCI-H226
  GI50: 33 µM (inactive)
DLD-1
  GI50: > 9.1 µM (inactive)
MDA-MB-231
  GI50: > 36.2 µM (inactive)
SN12C
  GI50: 29.2 µM (inactive)
DMS-114
  GI50: 6.1 µM (inactive)
T47D
  GI50: 17.7 µM (inactive)
HOP-18
  GI50: > 9.1 µM (inactive)
ACHN
  GI50: 9.46 µM (inactive)
UO-31
  GI50: 25.6 µM (inactive)
HCT-15
  GI50: 12.7 µM
U-251
  GI50: 18.2 µM (inactive)
HCC 2998
  GI50: > 9.1 µM (inactive)
IGROV-1
  GI50: 22.5 µM (inactive)
MCF7
  GI50: 11.4 µM (inactive)
SF-295
  GI50: 9.77 µM (inactive)
NCI-H522
  GI50: 19 µM (inactive)
DMS-273
  GI50: > 9.1 µM (inactive)
BT-549
  GI50: 21.6 µM (inactive)
HT-29
  GI50: 22.8 µM (inactive)
HOP-62
  GI50: 25.7 µM (inactive)
NCI-H23
  GI50: 11.8 µM (inactive)
KM-20L2
  GI50: > 9.1 µM (inactive)
RXF 393
  GI50: 23.7 µM (inactive)
